Reference: US9801922B2, “Compositions and methods of treating cancer” (UNIVERSITY OF IOWA RESEARCH FOUNDATION, priority 2011, dated 2017)

Columns and labels:
[1] = system: SUM159 human breast cancer cells; test: Clonogenic cell survival, SUM159; type: cell-based; conditions: for cytotoxicity (clonogenic survival), in words: 500 nM AUR 15 min
Description: FIGS. 1A-D: BSO, DTPP and AUR treated SUM159, MDA-MB231 and HMEC Clonogenic survival. In Panel A (SUM 159), B (MDA-MB231) and C(HMEC), 150,000 cells/dish SUM159 or MDA-MB231 and 300,000 cells/dish were plated in 60 mm tissue culture dishes. After 48 hours, cells were given fresh complete HMECs media and treated with 100 μM BSO+/1 μM DTPP for 24 hours. 500 nM AUR were added 15 mins before the trypsinization of cells for clonogenic survival assay. In panel A-C, The error bars represent mean±1 SD of n=1 treatment dishes done in 3 separate experiments where each treatment dish was used to prepare 6-10 replicate cloning dishes for analysis. *p<0.001 as compared to Control. […] Mice growing Sum159 xenograft tumors were treated with 100 μM DTPP in drinking water for 2 weeks followed by i.p. injections of BSO 675 mg/kg followed in 2 hrs with Au 2.7 mg/kg. The day following injections tumors were harvested, digested and stained for ALDH positive cells. Each bar represents an average of at least three tumors. Error bars are SEM. *p<0.05 vs. control.
FIG. 2: BSO and AUR treated SUM159 dose response Clonogenic survival. 150,000 cells/dish SUM159 were plated in 60 mm tissue culture dishes. After 48 hours, cells were given fresh complete HMECs media and treated with 100 μM BSO 24 hours. 500 nM AUR were added 15 mins, 30 mins, 45 mins, 1 hr, 1.5 hrs and 3 hrs before the trypsinization. Cells were then collected and plated for clonogenic survival. In panel A-C, The error bars represent mean±1 SD of n=1 treatment dishes done in 3 separate experiments where each treatment dish was used to prepare 6-10 replicate cloning dishes for analysis. *p<0.001 as compared to SUM159 Control. ^p<0.001 as compared to HMEC Control.
FIGS. 3A-3B: Clonogenic survival of SUM159 and MDA-MB231 cells treated with BSO, DTPP and AUR in the presence of 20 mM NAC. Asynchronously growing cultures of SUM159 (panel A) and MDA-MB231 (panel B) were plated as described in FIG. 1. After 48 hours, cells were given fresh complete HMECs media and treated with 100 μM BSO+/1 μM DTPP in the presence or absence of 20 mM NAC for 24 hours. 500 nM AUR were added 15 mins before the trypsinization. cells were then collected and plated for clonogenic survival. In panel A, B, The error bars represent mean±1SD of n=1 treatment dishes done in 3 separate experiments where each treatment dish was used to prepare 6-10 replicate cloning dishes for analysis. *p<0.001 as compared to W/O NAC Control. ^p<0.001 as compared to W/NAC Control.
FIG. 6: BSO, DTPP and AUR treated SUM159 in the presence of 100 U/ml PEGSOD+/PEGCAT Clonogenic survival. Asynchronously growing cultures of SUM159 were plated as described in FIG. 1. After 48 hours, cells were given fresh complete HMECs media and treated with 100 μM BSO+/1 μM DTPP in the presence or absence of PEGSOD+/PEGCAT (100 U/mL each) for 24 hours. Control received PEG alone (18 μM) for 24 hours. 500 nM AUR were added 15 mins before the trypsinization. Cells were then collected and plated for clonogenic survival. In panel A, B, The error bars represent mean±1 SD of n=1 treatment dishes done in 3 separate experiments where each treatment dish was used to prepare 6-10 replicate cloning dishes for analysis. *p<0.001 as compared to PEG alone Control. ^p<0.001 as compared to PEGCAT Control, $ p<0.001 as compared to PEGSOD+CAT Control.
Clonogenic cell survival: To determine whether the DTPP exposure alters the cell proliferation in MDA-MB231, SUM159 and HMECs, 150,000 cells/dish of MDA-MB231 and SUM159 cells, and 300,000 cells/dish HMECs were plated in 60 mm tissue culture dishes. After 48 hours, at 24 hours prior to each clonogenic survival experiment, media in all the dishes were changed to HMECs media and then treated with 100 μM BSO and 1 μM DTPP for 24 h. Cells were treated with AUR for 15 minutes prior to each clonogenic survival experiment. […]

SUM159 cells = test: Glutathione analysis (total GSH, GSSG); type: cell-based, human; conditions: for % GSSG: untreated 1.13%
Description: FIG. 18: Intracellular GSH&GSSG measured in BSO, DTPP, and AUR exposed SUM159 cells. Asynchronously growing cultures of SUM159 were plated and treated as described in FIG. 1. Cells were harvested and scraped in PBS at 4° C. Whole cell homogenates were used for biochemical analysis of total GSH & GSSG levels. Errors represent Mean ±1 SD of 4 samples from two separate experiments (n=4).
Glutathione analysis: SUM159 Cells were plated and treated with BSO, DTPP and AUR as described above. When cells were grown to 70-80% confluency on 100 mm dishes and scraped in PBS at 4° C., centrifuged, and the cell pellets were frozen at −20° C. until analysis. Samples were thawed and whole homogenates were prepared as described and total glutathione (GSH+GSSG) was determined using a recycling method (Spitz, D. R.; Malcolm, R. R.; Roberts, R. J. Cytotoxicity and metabolism of 4-hydroxy-2-nonenal and 2-nonenal in H2O2-resistant cell lines. Do aldehydic by-products of lipid peroxidation contribute to oxidative stress? Biochem J 267:453-459; 1990; Griffith, O. W. Determination of glutathione and glutathione disulfide using glutathione reductase and 2-vinylpyridine. Anal Biochem 106:207-212; 1980). All biochemical determinations were normalized to the protein content using the method of bicinchoninic acid protein assay.

Row | Compound | cytotoxicity (clonogenic survival), in words ([1]; 100 μM BSO, 1 μM DTPP 24 h) | effect on glutathione metabolism, in words (SUM159 cells) | total GSH, in words (SUM159 cells; 24 hours) | % GSSG (SUM159 cells) | survival fraction (of control cells) in the presence of NAC ([1]; 1 μM DTPP with 20 mM NAC, 24 hrs) | decrease in cell survival / survival fraction compared to control ([1]; 100 μM BSO and/or 1 μM DTPP for 24 hours) | clonogenic cell killing ([1]; 100 μM BSO, 1 μM DTPP 24 h, 500 nM AUR 15 min (FIG. 1A)) | clonogenic survival without PEGSOD+PEGCAT ([1]; PEG alone control) | clonogenic survival with PEGSOD+PEGCAT ([1]; PEGSOD+PEGCAT 100 U/ml each) | increase in GSSG and % GSSG compared to untreated cells (SUM159 cells) | GSSG (SUM159 cells; untreated 0.06)
1 | CC[PH](CC)(CC)[Au][S][C@@H]1O[C@H](COC(C)=O)[C@@H](OC(C)=O)[C@H](OC(C)=O)[C@H]1OC(C)=O [AUR, S-triethylphosphinegold(I)-2,3,4,6-tetra-O-acetyl-1-thio-β-D-glucopyranoside] | did not cause any significant cytotoxicity | not capable of altering the glutathione metabolism | – | – | – | – | – | – | – | – | –
2 | CCCCS(=N)(=O)CCC(N)C(=O)O [BSO, L-buthionine-[S,R]-sulfoximine, reference compound] | did not cause significantly cytotoxicity | – | significant decreases in total GSH | 4.88% | – | – | – | – | – | – | –
3 | CCCCCCCCCC[P+](c1ccccc1)(c1ccccc1)c1ccccc1 [DTPP, Decyl-Triphenylphosphonium] | – | – | – | 3.65% | at least 70% | 70%-80% | at least 70% | 35% | 70% | ~3 fold | 0.26 nmole GSSG/mg protein
